Laboratory results as given in ChEMBL document CHEMBL1129317, “Novel selective and partial agonists of 5-HT3 receptors. Part 1. Synthesis and biological evaluation of piperazinopyrrolothienopyrazines” (J Med Chem, 1996).

Assays:
[1] = target: 5-hydroxytryptamine receptor 1D (Sus scrofa, UniProt P79400); assay: Binding affinity for 5-hydroxytryptamine 1D receptor
[2] = target: T1, Serotonin 3 (5-HT3) receptor (Rattus norvegicus) (UniProt P35563+Q9JJ16); assay: Antagonistic activity of compound towards 5-hydroxytryptamine 3 receptor in Von Bezold-Jarisch reflex in rats at 60 (ug/kg), evaluated as percent inhibition of bradycardia; format: functional
[3] = target: T2, 5-hydroxytryptamine receptor 2C (Homo sapiens, UniProt P28335); assay: Binding affinity towards 5-hydroxytryptamine 2C receptor
T2 sequence (P28335 whole entry): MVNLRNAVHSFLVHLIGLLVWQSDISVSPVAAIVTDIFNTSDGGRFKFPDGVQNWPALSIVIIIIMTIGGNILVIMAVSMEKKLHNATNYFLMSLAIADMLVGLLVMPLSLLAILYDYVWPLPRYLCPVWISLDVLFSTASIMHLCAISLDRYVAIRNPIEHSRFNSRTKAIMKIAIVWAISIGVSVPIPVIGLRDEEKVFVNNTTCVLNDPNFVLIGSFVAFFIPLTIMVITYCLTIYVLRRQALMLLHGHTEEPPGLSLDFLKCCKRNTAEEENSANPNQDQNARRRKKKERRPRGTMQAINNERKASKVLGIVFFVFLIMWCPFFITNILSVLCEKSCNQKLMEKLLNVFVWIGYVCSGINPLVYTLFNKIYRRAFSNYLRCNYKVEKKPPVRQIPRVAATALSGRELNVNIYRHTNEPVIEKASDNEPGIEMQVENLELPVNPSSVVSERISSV

[4] = target: T1, Serotonin 3 (5-HT3) receptor (Rattus norvegicus); assay: Agonistic activity of compound towards 5-hydroxytryptamine 3 receptor in Von Bezold-Jarisch Reflex in rats at 120 (ug/kg), evaluated as change in heart rate; format: functional
[5] = target: Adenosine A2 receptor (Homo sapiens) (UniProt P29275+P29274); assay: Inhibitory activity against Adenosine A2 receptor using [3H]CGS-21680 at […] (M); format: protein assay
[6] = target: Adenosine receptor A1 (Homo sapiens) (UniProt P30542); assay: Inhibitory activity against Adenosine A1 receptor using [3H]DPCPX at […] (M)
[7] = target: Adrenergic receptor alpha-2 (Homo sapiens) (UniProt P08913+P18825+P18089); assay: Inhibitory activity against Alpha-2 adrenergic receptor using [3H]RX-821002 at 10e-5 (M); format: protein assay
[8] = target: Beta-1 adrenergic receptor (Homo sapiens) (UniProt P08588); assay: Inhibitory activity against Beta-1 adrenergic receptor using [3H]CGP-12177 at 10e-5 (M)
Sequence of Beta-1 adrenergic receptor (Homo sapiens) (P08588 whole entry, looked up): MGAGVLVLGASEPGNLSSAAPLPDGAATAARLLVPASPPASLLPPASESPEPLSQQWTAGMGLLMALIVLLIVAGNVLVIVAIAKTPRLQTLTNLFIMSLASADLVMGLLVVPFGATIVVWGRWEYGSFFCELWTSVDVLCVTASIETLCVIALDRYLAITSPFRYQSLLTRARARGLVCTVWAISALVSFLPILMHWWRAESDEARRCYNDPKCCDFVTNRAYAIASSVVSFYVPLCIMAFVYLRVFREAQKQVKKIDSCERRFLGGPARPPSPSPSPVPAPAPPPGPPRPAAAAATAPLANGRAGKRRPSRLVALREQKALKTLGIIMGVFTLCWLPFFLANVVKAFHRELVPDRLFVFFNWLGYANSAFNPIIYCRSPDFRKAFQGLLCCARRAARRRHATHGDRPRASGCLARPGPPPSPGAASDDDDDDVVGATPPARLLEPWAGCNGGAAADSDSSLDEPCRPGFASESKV

[9] = target: T3, GABA-A receptor; anion channel (Homo sapiens) (UniProt P14867+P47870+P18507+P28472+P48169+Q99928+Q9UN88+P34903+O00591+O14764+Q8N1C3+P18505+P78334+P47869+P31644+Q16445); assay: Inhibition of [3H]flunitrazepam binding to GABA-A central Benzodiazepine receptor at 10e-5 M; format: protein-complex assay
[10] = Inhibition of [3H]PK11195 binding to peripheral Benzodiazepine receptor at 10e-5 M
[11] = target: Beta-2 adrenergic receptor (Homo sapiens) (UniProt P07550); assay: Inhibitory activity against Beta-2 adrenergic receptor using [3H]CGP-12177 at […] (M)
[12] = target: Gastrin/cholecystokinin type B receptor (Homo sapiens) (UniProt P32239); assay: Inhibitory activity against Cholecystokinin type B receptor using [3H]CCK-8 at […] (M)
Sequence of Gastrin/cholecystokinin type B receptor (Homo sapiens) (P32239 whole entry): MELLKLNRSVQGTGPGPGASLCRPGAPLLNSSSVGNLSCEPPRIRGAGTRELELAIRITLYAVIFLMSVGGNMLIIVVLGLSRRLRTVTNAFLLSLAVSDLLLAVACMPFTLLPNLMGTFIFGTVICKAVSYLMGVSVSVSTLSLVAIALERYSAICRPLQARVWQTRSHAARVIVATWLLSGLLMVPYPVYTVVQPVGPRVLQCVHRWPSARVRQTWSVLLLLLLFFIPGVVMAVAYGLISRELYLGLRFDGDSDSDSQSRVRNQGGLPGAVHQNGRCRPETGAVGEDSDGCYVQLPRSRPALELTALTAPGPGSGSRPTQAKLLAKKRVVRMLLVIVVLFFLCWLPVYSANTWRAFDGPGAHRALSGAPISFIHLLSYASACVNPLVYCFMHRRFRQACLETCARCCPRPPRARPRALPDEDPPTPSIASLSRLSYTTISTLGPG

[13] = target: D(1A) dopamine receptor (Homo sapiens) (UniProt P21728); assay: Inhibitory activity against Dopamine receptor D1 using [3H]SCH-23,390 at […] (M)
[14] = target: D(2) dopamine receptor (Homo sapiens) (UniProt P14416); assay: In vitro displacement from Dopamine receptor D2; conditions: concentration not given here
Sequence of D(2) dopamine receptor (Homo sapiens) (P14416 whole entry): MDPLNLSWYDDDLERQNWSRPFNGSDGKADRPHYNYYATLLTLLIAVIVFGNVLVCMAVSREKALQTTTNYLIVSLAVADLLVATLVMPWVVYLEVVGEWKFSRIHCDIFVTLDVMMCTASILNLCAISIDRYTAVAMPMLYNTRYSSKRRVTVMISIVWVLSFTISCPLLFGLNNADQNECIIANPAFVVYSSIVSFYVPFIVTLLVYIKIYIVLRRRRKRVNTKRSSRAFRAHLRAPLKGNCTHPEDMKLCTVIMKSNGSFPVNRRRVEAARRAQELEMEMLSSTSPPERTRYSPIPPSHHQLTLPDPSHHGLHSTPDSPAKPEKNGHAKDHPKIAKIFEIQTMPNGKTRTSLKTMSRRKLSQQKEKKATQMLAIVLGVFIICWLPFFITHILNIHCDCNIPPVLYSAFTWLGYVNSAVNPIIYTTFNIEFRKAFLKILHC

[15] = target: T3, GABA-A receptor; anion channel (Homo sapiens); assay: Inhibitory activity against Gamma-aminobutyric acid A (GABA-A) receptor using [3H]-muscimol at 10e-5 M; format: protein-complex assay
[16] = Inhibitory activity against Gamma-aminobutyric acid type B receptor using [3H]GABA at 10e-5 M
[17] = target: Interleukin-1 receptor type 1 (Homo sapiens) (UniProt P14778); assay: Inhibitory activity against Interleukin 1d using [3H]IL-1-alpha at […] (M)
Sequence of Interleukin-1 receptor type 1 (Homo sapiens) (P14778 whole entry): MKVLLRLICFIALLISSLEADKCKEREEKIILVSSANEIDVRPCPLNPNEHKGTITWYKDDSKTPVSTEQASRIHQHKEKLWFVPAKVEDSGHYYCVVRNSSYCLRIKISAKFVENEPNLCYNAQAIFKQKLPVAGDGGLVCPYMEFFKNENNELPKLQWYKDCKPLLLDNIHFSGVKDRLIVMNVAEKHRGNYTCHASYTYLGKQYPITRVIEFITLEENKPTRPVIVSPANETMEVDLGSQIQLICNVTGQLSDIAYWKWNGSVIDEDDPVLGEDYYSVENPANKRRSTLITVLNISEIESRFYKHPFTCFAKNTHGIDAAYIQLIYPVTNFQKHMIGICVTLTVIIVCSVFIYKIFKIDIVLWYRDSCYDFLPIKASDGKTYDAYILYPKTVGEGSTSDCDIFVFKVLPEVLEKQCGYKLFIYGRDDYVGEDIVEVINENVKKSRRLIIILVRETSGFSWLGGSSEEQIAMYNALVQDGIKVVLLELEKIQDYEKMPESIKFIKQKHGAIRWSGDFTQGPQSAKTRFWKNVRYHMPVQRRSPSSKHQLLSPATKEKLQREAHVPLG

[18] = target: Insulin receptor (Homo sapiens) (UniProt P06213); assay: Displacement of [3H]insulin from Insulin receptor at 10e-5 M
[19] = target: Glutamate receptor ionotropic kainate (Homo sapiens) (UniProt P39086+Q16478+Q16099+Q13002+Q13003); assay: Inhibitory activity against Ionotropic glutamate receptor kainate using [3H]- Kainate at […] (M); format: protein-complex assay
[20] = target: Muscarinic acetylcholine receptor M1 (Homo sapiens) (UniProt P11229); assay: Inhibitory activity against Muscarinic acetylcholine receptor M1 using [3H]pirenzepine at […] (M)
[21] = target: Neuropeptide Y receptor type 1 (Homo sapiens) (UniProt P25929); assay: Inhibitory activity against Neuropeptide Y receptor type 1 using [3H]-NPY at 10e5 (M)
Sequence of Neuropeptide Y receptor type 1 (Homo sapiens) (P25929 whole entry): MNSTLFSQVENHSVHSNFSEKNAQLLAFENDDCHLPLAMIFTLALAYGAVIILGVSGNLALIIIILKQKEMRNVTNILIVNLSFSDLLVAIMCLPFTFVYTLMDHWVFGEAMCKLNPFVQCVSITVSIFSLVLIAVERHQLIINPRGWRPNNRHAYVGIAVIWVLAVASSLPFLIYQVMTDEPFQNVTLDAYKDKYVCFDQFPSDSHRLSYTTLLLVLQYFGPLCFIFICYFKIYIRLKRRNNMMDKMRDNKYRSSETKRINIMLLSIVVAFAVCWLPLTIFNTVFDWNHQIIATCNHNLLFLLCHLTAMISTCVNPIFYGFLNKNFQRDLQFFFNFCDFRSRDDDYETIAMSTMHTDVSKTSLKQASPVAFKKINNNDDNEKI

[22] = target: Muscarinic acetylcholine receptor M3 (Homo sapiens) (UniProt P20309); assay: Inhibitory activity against Muscarinic acetylcholine receptor M3 using [3H]NMS at […] (M)
Sequence of Muscarinic acetylcholine receptor M3 (Homo sapiens) (P20309 whole entry, looked up): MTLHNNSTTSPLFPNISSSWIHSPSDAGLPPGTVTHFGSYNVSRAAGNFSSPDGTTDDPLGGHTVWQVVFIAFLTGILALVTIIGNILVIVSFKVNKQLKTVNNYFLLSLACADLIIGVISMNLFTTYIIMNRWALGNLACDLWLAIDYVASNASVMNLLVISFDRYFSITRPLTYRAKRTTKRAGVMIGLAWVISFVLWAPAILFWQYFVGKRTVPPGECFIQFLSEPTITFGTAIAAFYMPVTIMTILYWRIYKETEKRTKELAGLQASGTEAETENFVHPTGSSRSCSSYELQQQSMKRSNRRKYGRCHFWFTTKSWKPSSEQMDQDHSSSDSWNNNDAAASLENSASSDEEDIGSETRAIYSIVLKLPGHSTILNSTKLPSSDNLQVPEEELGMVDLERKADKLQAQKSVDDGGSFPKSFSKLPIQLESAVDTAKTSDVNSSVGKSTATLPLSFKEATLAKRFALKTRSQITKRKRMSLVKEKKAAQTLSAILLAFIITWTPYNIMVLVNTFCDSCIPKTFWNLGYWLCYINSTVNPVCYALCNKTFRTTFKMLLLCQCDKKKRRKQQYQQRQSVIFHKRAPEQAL

[23] = target: Muscarinic acetylcholine receptor M2 (Homo sapiens) (UniProt P08172); assay: Inhibitory activity against Muscarinic acetylcholine receptor M2 using [3H]NMS at […] (M)
Sequence of Muscarinic acetylcholine receptor M2 (Homo sapiens) (P08172 whole entry): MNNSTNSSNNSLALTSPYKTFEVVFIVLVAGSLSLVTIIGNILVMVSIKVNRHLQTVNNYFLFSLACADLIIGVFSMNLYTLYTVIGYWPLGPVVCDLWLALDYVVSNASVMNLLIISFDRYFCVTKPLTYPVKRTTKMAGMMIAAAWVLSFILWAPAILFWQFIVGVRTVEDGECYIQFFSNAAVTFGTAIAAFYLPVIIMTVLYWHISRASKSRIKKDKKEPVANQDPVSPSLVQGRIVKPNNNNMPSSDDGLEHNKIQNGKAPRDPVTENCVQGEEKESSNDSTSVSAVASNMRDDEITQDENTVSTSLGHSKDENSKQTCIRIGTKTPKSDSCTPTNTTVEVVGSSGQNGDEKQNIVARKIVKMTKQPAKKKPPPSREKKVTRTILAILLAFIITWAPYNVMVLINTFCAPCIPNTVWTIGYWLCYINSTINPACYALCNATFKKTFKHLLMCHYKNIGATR

[24] = target: T4, Glutamate [NMDA] receptor (Homo sapiens) (UniProt Q05586+Q12879+Q13224+O15399+O60391+Q14957+Q8TCU5); assay: Inhibitory activity against Phencyclidine receptor using [3H]-TCP at […] (M); format: protein-complex assay
[25] = Inhibition of [3H]batrachotoxin binding to sodium channel at 10e-7 M
[26] = target: Thyrotropin-releasing hormone receptor (Homo sapiens) (UniProt P34981); assay: Inhibitory activity against TRH using [3H]TRH at 10e-5 (M)
[27] = target: Tumor necrosis factor receptor superfamily member 1A (Homo sapiens) (UniProt P19438); assay: Inhibitory activity against TNF using [125]TNF at 10e-5 (M)
Sequence of Tumor necrosis factor receptor superfamily member 1A (Homo sapiens) (P19438 whole entry): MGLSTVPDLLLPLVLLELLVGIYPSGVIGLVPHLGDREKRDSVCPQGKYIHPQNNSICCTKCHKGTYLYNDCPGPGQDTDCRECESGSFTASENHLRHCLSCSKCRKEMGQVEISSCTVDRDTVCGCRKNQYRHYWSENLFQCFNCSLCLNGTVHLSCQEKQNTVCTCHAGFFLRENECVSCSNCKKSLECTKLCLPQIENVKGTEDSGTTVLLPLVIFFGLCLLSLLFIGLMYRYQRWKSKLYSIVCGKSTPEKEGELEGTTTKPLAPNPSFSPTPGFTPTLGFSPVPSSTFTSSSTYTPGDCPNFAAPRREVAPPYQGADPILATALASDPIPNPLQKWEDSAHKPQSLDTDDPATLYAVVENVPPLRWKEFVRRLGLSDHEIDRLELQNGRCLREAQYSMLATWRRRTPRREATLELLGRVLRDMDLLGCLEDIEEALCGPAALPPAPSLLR

[28] = Inhibitory activity against VIP using [125]VIP at 10e-5 (M)
[29] = target: T4, Glutamate [NMDA] receptor (Homo sapiens); assay: Inhibitory activity against NMDA using [3H]CGS-19,755 at […] (M); format: protein-complex assay
[30] = target: 5-hydroxytryptamine receptor 1B (Rattus norvegicus, UniProt P28564); assay: Binding affinity for 5-hydroxytryptamine 1B receptor
Sequence of 5-hydroxytryptamine receptor 1B (P28564 whole entry): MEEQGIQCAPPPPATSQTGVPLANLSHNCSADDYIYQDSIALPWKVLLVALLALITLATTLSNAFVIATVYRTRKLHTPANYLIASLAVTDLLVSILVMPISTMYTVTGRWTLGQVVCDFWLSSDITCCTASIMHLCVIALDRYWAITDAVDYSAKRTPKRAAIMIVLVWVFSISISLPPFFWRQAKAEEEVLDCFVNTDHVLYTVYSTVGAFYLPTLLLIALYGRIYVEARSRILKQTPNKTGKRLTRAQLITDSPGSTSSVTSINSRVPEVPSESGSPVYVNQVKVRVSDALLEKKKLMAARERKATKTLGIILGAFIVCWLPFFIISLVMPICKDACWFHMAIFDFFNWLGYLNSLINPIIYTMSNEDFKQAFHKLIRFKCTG

[31] = target: 5-hydroxytryptamine receptor 2A (Bos taurus, UniProt Q75Z89); assay: Binding affinity towards 5-hydroxytryptamine 2A receptor
[32] = target: Leukotriene B4 receptor 1 (Homo sapiens) (UniProt Q15722); assay: Inhibitory activity against Leukotriene B4 receptor using [3H]- LTB4 at […] (M)
Sequence of Leukotriene B4 receptor 1 (Homo sapiens) (Q15722 whole entry): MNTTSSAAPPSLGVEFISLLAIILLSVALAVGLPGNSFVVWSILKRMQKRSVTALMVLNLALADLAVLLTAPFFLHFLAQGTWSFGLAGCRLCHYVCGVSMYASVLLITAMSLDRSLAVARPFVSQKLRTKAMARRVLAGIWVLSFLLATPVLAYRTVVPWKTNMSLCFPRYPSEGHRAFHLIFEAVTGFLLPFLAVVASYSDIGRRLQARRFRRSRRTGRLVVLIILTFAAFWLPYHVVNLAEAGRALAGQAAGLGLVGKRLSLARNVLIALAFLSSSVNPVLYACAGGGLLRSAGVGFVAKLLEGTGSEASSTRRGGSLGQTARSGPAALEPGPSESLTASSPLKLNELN

[33] = target: Cholecystokinin receptor type A (Homo sapiens) (UniProt P32238); assay: Inhibitory activity against Cholecystokinin type A receptor using [3H]L-364718 at […] (M)

Sequence of 5-hydroxytryptamine receptor 1D (P79400 whole entry): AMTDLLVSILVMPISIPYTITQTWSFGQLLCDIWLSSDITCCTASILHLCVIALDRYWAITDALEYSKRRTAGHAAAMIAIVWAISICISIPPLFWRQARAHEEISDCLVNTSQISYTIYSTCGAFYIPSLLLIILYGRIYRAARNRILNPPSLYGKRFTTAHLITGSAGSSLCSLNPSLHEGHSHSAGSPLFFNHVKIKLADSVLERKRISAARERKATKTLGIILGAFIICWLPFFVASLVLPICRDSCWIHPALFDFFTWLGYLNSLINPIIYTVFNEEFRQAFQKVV

Molecule c1ccc(CN2CCN(c3nc4ccsc4n4cccc34)CC2)cc1 has an IC50 [1] of 14.1 µM, a Change [2] of 40% and an IC50 [3] of 1.86 µM. It also gave a Change [4] of 42%, an inhibition [5] of 4% and an inhibition [6] of 23%. For the same molecule, the inhibition [7] was 29%, the inhibition [8] was 21% and the inhibition [9] was 5%. For the same molecule, the inhibition [10] was 34%, the inhibition [11] was 19% and the inhibition [12] was 18%. For the same molecule, the inhibition [13] was 14%, the inhibition [14] was 5% and the inhibition [15] was 31%. The inhibition [16] was 40%, the inhibition [17] was 1% and the inhibition [18] was 15%. The inhibition [19] was 12%, the inhibition [20] was 29% and the inhibition [21] was 4%. It also gave an inhibition [22] of 20%, an inhibition [23] of 5% and an inhibition [24] of 10%. The inhibition [25] was 28%, the inhibition [26] was 12% and the inhibition [27] was 7%. The inhibition [28] was 6%, the inhibition [29] was 19% and the IC50 [30] was 1.02 µM. For the same molecule, the IC50 [31] was 4.37 µM, the inhibition [32] was 17% and the inhibition [33] was 7%.
